# Data published in ChEMBL document CHEMBL4382198, “Discovery of Risdiplam, a Selective Survival of Motor Neuron-2 ( SMN2) Gene Splicing Modifier for the Treatment of Spinal Muscular Atrophy (SMA)” (J Med Chem, 2018).
# Assays:
# [1] = Effect on FOXM1b/c mRNA splicing in cynomolgus monkey induced pluripotent stem cells by RT-qPCR analysis; assay type: ADME, Macaca fascicularis
# [2] = Effect on FOXM1b/c mRNA splicing in human induced pluripotent stem cells by RT-qPCR analysis; assay type: ADME
# in vivo = details: rat
# [3] = target: Survival motor neuron protein (Homo sapiens) (UniProt Q16637); assay: Activation of SMN protein in human SMA-derived fibroblasts after 48 hrs by HTRF assay
# Sequence of Survival motor neuron protein (Homo sapiens) (Q16637 whole entry): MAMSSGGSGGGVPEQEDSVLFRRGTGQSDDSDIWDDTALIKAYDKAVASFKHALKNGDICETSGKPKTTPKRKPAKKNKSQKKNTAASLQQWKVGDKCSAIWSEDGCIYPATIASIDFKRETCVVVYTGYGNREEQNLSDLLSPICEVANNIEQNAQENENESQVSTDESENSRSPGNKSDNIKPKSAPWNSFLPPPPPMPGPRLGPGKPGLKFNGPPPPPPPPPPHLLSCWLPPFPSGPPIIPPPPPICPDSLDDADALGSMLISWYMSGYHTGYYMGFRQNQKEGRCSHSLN
# Homo sapiens [4] = organism: Homo sapiens; assay: Activation of human full length SMN2 mRNA expressed in human SMA-derived fibroblasts by RT-qPCR analysis
# [5] = Drug metabolism in rabbit plasma assessed as dealkylated 2-(4-ethyl-6-methylpyrazolo[1,5-a]pyrazin-2-yl)-9-methyl-7-(piperidin-4-yl)-4H-pyrido[1,2-a]pyrimidin-4-one metabolite formation; assay type: ADME, cell-free, Oryctolagus cuniculus
# [6] = Cardiotoxicity in cynomolgus monkey assessed as prolongation of QTc interval time; assay type: toxicity, Macaca fascicularis
# [7] = Drug metabolism in human plasma assessed as dealkylated 2-(4-ethyl-6-methylpyrazolo[1,5-a]pyrazin-2-yl)-9-methyl-7-(piperidin-4-yl)-4H-pyrido[1,2-a]pyrimidin-4-one metabolite formation; assay type: ADME, cell-free
# [8] = Half life in cynomolgus monkey at 1.3 mg/kg, po administered as single dose; assay type: ADME, organism-based, Macaca fascicularis; details: in vivo
# [9] = Drug metabolism in mouse plasma assessed as dealkylated 2-(4-ethyl-6-methylpyrazolo[1,5-a]pyrazin-2-yl)-9-methyl-7-(piperidin-4-yl)-4H-pyrido[1,2-a]pyrimidin-4-one metabolite formation; assay type: ADME, cell-free
# [10] = Drug metabolism in rat plasma assessed as dealkylated 2-(4-ethyl-6-methylpyrazolo[1,5-a]pyrazin-2-yl)-9-methyl-7-(piperidin-4-yl)-4H-pyrido[1,2-a]pyrimidin-4-one metabolite formation; assay type: ADME, cell-free
# [11] = Effect on human FOXM1a mRNA splicing expressed in human SMA-derived fibroblasts by RT-qPCR analysis; assay type: ADME
# [12] = Tmax in human; assay type: ADME
# Mus musculus [13] = assay: In-vivo stabilization of SMN2 mRNA in SMA neonatal delta7 mouse model assessed as increase in free SMN protein levels by measuring free AUC (0 to 42 hrs) at 1 mg/kg, ip dosed once daily starting from postnatal day 3 to postnatal day 9; assay type: functional
# [14] = Stabilization of human APLP2 mRNA splicing expressed in human SMA-derived fibroblasts at 131 to 655 nM by RT-qPCR analysis; assay type: ADME; details: 0.655 µM
# [15] = Lipophilicity, log D of the compound at pH 7.4; assay type: physicochemical; details: buffer
# NIH3T3 = assay: Phototoxicity in mouse 3T3 cells assessed as decrease in cell viability in presence of UV light by neutral red uptake assay; assay type: cell-based; details: NIH3T3, light or radiation study
# [16] = Chronic toxicity in retina of po dosed cynomolgus monkey assessed as effect on outer nuclear layers after 39 weeks by histological analysis; assay type: organism-based, Macaca fascicularis; details: in vivo, 6552 h
# [17] = Chronic toxicity in retina of po dosed cynomolgus monkey assessed as excess vacuolation of inner nuclear layer after 39 weeks by histological analysis; assay type: organism-based, Macaca fascicularis; details: in vivo, 6552 h
# [18] = Drug metabolism in pig plasma assessed as dealkylated 2-(4-ethyl-6-methylpyrazolo[1,5-a]pyrazin-2-yl)-9-methyl-7-(piperidin-4-yl)-4H-pyrido[1,2-a]pyrimidin-4-one metabolite formation; assay type: ADME, cell-free, Sus scrofa
# [19] = Efflux ratio of permeability in human SMA-derived fibroblasts; assay type: ADME, cell-based, Fibroblast; details: not told
# [20] = Stabilization of human STRN3 mRNA splicing expressed in human SMA-derived fibroblasts at 131 to 655 nM by RT-qPCR analysis; assay type: ADME; details: 0.655 µM
# [21] = Effect on human FOXM1b/c mRNA splicing expressed in human SMA-derived fibroblasts by RT-qPCR analysis; assay type: ADME
# [22] = Terminal half life in rat; assay type: ADME; details: in vivo, read-out: beta t1/2 (converted)
# [23] = Clearance in rat at 2 mg/kg, iv administered as single dose; assay type: ADME, organism-based; details: in vivo
# [24] = Oral bioavailability in rat at 5 mg/kg administered as single dose; assay type: ADME, organism-based; details: in vivo
# [25] = Terminal half life in human; assay type: ADME; details: read-out: beta t1/2 (converted)
# [26] = Terminal half life in cynomolgus monkey; assay type: ADME, Macaca fascicularis; details: in vivo, read-out: beta t1/2 (converted)
# [27] = Chronic toxicity in retina of po dosed cynomolgus monkey assessed as formation of microcystic spaces in the inner retinal layers after 39 weeks by OCT analysis; assay type: organism-based, Macaca fascicularis; details: in vivo, 6552 h
# Homo sapiens [28] = organism: Homo sapiens; assay: Modulation of human SMN2 mRNAsplicing expressed in HEK293H cells by qRT-PCR analysis; assay type: cell-based
# Mus musculus [29] = assay: In-vivo stabilization of SMN2 mRNA in SMA neonatal delta7 mouse model assessed as increase in free SMN protein levels by measuring free AUC (0 to 42 hrs) at 3 mg/kg, ip dosed once daily starting from postnatal day 3 to postnatal day 9; assay type: functional
# [30] = Half life in rat at 5 mg/kg, po administered as single dose; assay type: ADME, organism-based; details: in vivo
# [31] = Chronic toxicity in retina of po dosed cynomolgus monkey assessed as effect on photo-receptor layers after 39 weeks by histological analysis; assay type: organism-based, Macaca fascicularis; details: in vivo, 6552 h
# [32] = Volume of distribution at steady state in rat at 2 mg/kg, iv administered as single dose; assay type: ADME, organism-based; details: in vivo, read-out: Vdss
# [33] = target: Voltage-gated inwardly rectifying potassium channel KCNH2 (Homo sapiens, UniProt Q12809); assay: (§1) Inhibition of human ERG at 37 degC
# Sequence of Voltage-gated inwardly rectifying potassium channel KCNH2 (Q12809 whole entry): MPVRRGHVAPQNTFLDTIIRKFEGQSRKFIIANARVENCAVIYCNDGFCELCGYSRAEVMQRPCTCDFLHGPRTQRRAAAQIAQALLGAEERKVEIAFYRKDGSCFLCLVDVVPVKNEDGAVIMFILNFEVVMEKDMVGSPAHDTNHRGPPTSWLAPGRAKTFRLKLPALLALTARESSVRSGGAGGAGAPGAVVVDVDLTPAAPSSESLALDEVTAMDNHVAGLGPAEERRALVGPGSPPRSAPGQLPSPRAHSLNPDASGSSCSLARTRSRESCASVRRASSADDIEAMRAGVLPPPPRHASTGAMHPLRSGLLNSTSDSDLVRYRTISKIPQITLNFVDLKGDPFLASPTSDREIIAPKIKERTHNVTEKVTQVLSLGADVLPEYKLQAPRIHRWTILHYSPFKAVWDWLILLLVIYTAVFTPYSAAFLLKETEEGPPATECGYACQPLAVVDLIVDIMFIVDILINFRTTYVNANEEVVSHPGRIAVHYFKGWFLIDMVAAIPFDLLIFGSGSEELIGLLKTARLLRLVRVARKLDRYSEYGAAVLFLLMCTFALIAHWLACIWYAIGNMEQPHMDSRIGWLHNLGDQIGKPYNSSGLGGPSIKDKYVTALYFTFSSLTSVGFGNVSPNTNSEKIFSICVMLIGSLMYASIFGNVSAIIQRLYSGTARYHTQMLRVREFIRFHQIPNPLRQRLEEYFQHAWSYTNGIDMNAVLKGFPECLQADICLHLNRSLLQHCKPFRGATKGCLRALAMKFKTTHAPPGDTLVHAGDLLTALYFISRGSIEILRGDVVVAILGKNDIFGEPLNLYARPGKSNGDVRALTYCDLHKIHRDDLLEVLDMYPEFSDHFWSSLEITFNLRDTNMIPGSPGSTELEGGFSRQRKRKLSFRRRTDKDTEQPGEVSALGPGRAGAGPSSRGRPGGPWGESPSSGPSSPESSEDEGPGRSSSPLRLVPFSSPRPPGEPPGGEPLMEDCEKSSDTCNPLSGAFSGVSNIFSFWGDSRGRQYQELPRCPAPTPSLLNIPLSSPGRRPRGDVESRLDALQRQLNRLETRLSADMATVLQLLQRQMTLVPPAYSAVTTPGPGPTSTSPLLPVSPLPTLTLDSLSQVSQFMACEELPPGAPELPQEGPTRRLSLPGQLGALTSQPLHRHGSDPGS
# hERG (KCNH2) = hERG (KCNH2) (Homo sapiens, UniProt Q12809); assay: as §1; details: human
# Sequence of hERG (KCNH2) (Q12809 whole entry): as above
# [34] = Chronic toxicity in retina of po dosed cynomolgus monkey assessed as RPE hypertrophy 39 weeks by histological analysis; assay type: organism-based, Macaca fascicularis; details: in vivo, 6552 h
# [35] = Stabilization of human MADD mRNA splicing expressed in human SMA-derived fibroblasts at 131 to 655 nM by RT-qPCR analysis; assay type: ADME; details: 0.655 µM
# [36] = Drug metabolism in dog plasma assessed as dealkylated 2-(4-ethyl-6-methylpyrazolo[1,5-a]pyrazin-2-yl)-9-methyl-7-(piperidin-4-yl)-4H-pyrido[1,2-a]pyrimidin-4-one metabolite formation; assay type: ADME, cell-free, Canis lupus familiaris
# [37] = Dark toxicity in mouse 3T3 cells assessed as decrease in cell viability by neutral red uptake assay; assay type: cell-based, NIH3T3
# [38] = Chronic toxicity in retina of po dosed cynomolgus monkey assessed as multifocal peripheral retina degeneration after 39 weeks by OCT analysis; assay type: organism-based, Macaca fascicularis; details: in vivo, 6552 h
# [39] = Chronic toxicity in retina of po dosed cynomolgus monkey assessed as formation of scotopic depressed B-waves after 39 weeks by ERG analysis; assay type: organism-based, Macaca fascicularis; details: in vivo, 6552 h
# [40] = Oral bioavailability in cynomolgus monkey at 1.3 mg/kg administered as single dose; assay type: ADME, organism-based, Macaca fascicularis; details: in vivo
# [41] = Volume of distribution at steady state in cynomolgus monkey; assay type: ADME, Macaca fascicularis; details: in vivo, read-out: Vdss
# [42] = Stabilization of human […] mRNA splicing expressed in human SMA-derived fibroblasts at 131 to 655 nM by RT-qPCR analysis; assay type: ADME; details: 0.655 µM
# [43] = Drug metabolism in cynomolgus monkey plasma assessed as dealkylated 2-(4-ethyl-6-methylpyrazolo[1,5-a]pyrazin-2-yl)-9-methyl-7-(piperidin-4-yl)-4H-pyrido[1,2-a]pyrimidin-4-one metabolite formation; assay type: ADME, cell-free, Macaca fascicularis
# [44] = Drug metabolism in po dosed mouse plasma assessed as dealkylated 2-(4-ethyl-6-methylpyrazolo[1,5-a]pyrazin-2-yl)-9-methyl-7-(piperidin-4-yl)-4H-pyrido[1,2-a]pyrimidin-4-one metabolite formation; assay type: ADME, organism-based; details: in vivo
# [45] = Drug metabolism in po dosed cynomolgus monkey plasma assessed as dealkylated 2-(4-ethyl-6-methylpyrazolo[1,5-a]pyrazin-2-yl)-9-methyl-7-(piperidin-4-yl)-4H-pyrido[1,2-a]pyrimidin-4-one metabolite formation; assay type: ADME, organism-based, Macaca fascicularis; details: in vivo
# [46] = Drug metabolism in po dosed rat plasma assessed as dealkylated 2-(4-ethyl-6-methylpyrazolo[1,5-a]pyrazin-2-yl)-9-methyl-7-(piperidin-4-yl)-4H-pyrido[1,2-a]pyrimidin-4-one metabolite formation; assay type: ADME, organism-based; details: in vivo
# [47] = Efflux ratio of permeability in mouse 3T3 cells; assay type: ADME, cell-based, NIH3T3
smiles,measurement,setting,value
Cc1cn2nc(-c3cc(=O)n4cc(N5CCN(O)C6(CC6)C5)ccc4n3)cc(C)c2n1,Activity,[1]; cynomolgus monkey,Non-Toxic
same,Activity,[2]; human,Non-Toxic
CCc1nc(C)cn2nc(-c3cc(=O)n4cc(C5CCN(CC)CC5)cc(C)c4n3)cc12,Vd,in vivo,20 L/kg
same,pKa,physchem,9.1
CCc1nc(C)cn2nc(-c3cc(=O)n4cc(N5CCN6CCC[C@]6(C)C5)ccc4n3)cc12,Vd,in vivo,15 L/kg
same,pKa,physchem,8.4
Cc1cn2cc(-c3cc(=O)n4cc(N5CCN6CCC[C@@]6(C)C5)ccc4n3)cc(C(F)(F)F)c2n1,Vd,in vivo,9 L/kg
same,pKa,physchem,8.4
Cc1cn2cc(-c3cc(=O)n4cc(N5CCN(C)CC5)ccc4n3)cc(F)c2n1,Vd,in vivo,5 L/kg
same,pKa,physchem,7.2
CCc1nc(C)cn2nc(-c3cc(=O)n4cc(N5CCN6CCC[C@@H]6C5)ccc4n3)cc12,Vd,in vivo,7 L/kg
same,pKa,physchem,7.6
Cc1cn2nc(-c3cc(=O)n4cc(N5CCN6CCC[C@H]6C5)ccc4n3)cc(C)c2n1,EC1.5,[3],22 nM
same,EC1.5,Homo sapiens [4],2 nM
CCc1nc(C)cn2cc(-c3cc(=O)n4cc(N5CCC(N6CCC6)CC5)cc(C)c4n3)cc12,Vd,in vivo,20 L/kg
same,pKa,physchem,8.9
Cc1nc2c(F)cc(-c3cc(=O)n4cc(N5CCN6CCC[C@H]6C5)ccc4n3)cc2o1,Vd,in vivo,4 L/kg
same,pKa,physchem,7.5
CCc1nc(C)cn2nc(-c3cc(=O)n4cc(C5CCN(C)CC5)cc(C)c4n3)cc12,Drug metabolism,[5],Metabolite_Detected
same,Time,[6],10 ms
same,Drug metabolism,[7],Metabolite_Detected
same,half-life,[8],42 h
same,Drug metabolism,[9],Metabolite_Detected
same,Drug metabolism,[10],Metabolite_Detected
same,EC50,[11],247 nM
same,Tmax,[12],5 to 8 h
same,fAUC,Mus musculus [13],73 ng·h/mL
same,Activity,[14],Non-Toxic
same,EC1.5,[3],87 nM
same,logD,[15],2.3
same,IC50,NIH3T3,330 nM
same,Activity,[16],Toxic
same,Activity,[17],Toxic
same,Drug metabolism,[18],Metabolite_Detected
same,efflux ratio,[19],2
same,Activity,[20],Non-Toxic
same,Vd,in vivo,20 to 30 L/kg
same,EC50,[21],352 nM
same,half-life,[22],19 h
same,clearance,[23],25 mL/min/kg
same,bioavailability,[24],100%
same,IC50,[1]; Macaca fascicularis,900 nM
same,half-life,[25],120 h
same,half-life,[26],42 h
same,Activity,[27],Toxic
same,EC1.5,Homo sapiens [28],23 nM
same,IC50,[2]; Homo sapiens,1850 nM
same,fAUC,Mus musculus [29],118 ng·h/mL
same,half-life,[30],19 h
same,pKa,physchem,10.9
same,Activity,[31],Toxic
same,Vd,[32],29 L/kg
same,IC50,[33],1800 nM
same,IC20,hERG (KCNH2),500 nM
same,Activity,[34],Toxic
same,Activity,[35],Non-Toxic
same,Drug metabolism,[36],Metabolite_Detected
same,IC50,[37],> 10000 nM
same,Activity,[38],Toxic
same,Activity,[39],Toxic
same,bioavailability,[40],52%
same,Vd,[41],20 to 30 L/kg
same,Activity,[42],Non-Toxic
same,Drug metabolism,[43],Metabolite_Detected
Cc1cn2cc(-c3cc(=O)n4cc(N5CCC(N6CCCC6)CC5)ccc4n3)cc(C(F)(F)F)c2n1,Vd,in vivo,18 L/kg
same,pKa,physchem,9.3
Cc1cn2cc(-c3cc(=O)n4cc(N5CCN6CCC[C@H]6C5)ccc4n3)cc(C)c2n1,Vd,in vivo,15 L/kg
same,pKa,physchem,8.6
Cc1cn2cc(-c3cc(=O)n4cc(N5CCN6CCC[C@H]6C5)ccc4n3)cc(C(F)(F)F)c2n1,Vd,in vivo,7 L/kg
same,pKa,physchem,7.3
CCc1nc(C)cn2nc(-c3cc(=O)n4cc(N5CCN6CCC[C@H]6C5)ccc4n3)cc12,EC1.5,[3],163 nM
same,EC1.5,Homo sapiens [4],40 nM
Cc1cn2nc(-c3cc(=O)n4cc(N5CCN6CCC[C@H]6C5)ccc4n3)ccc2n1,EC1.5,[3],20 nM
same,EC1.5,Homo sapiens [4],3 nM
CCc1nc(C)cn2nc(C3=CC(=O)N4C=C(C5CCNCC5)C=C(C)C4N3)cc12 (stereo unspecified),EC1.5,Homo sapiens [4],< 2 nM
same,efflux ratio,[19],18.7
same,EC50,[21],23 nM
same,Drug metabolism,[44],<= 9 %ID
same,Drug metabolism,[45],<= 9 %ID
same,Drug metabolism,[46],<= 9 %ID
same,efflux ratio,[47],20
